The text below walks through data of US7482328B2, “Antimicrobial polypeptide and utilization thereof” (Toagosei Co., Ltd., priority 2002, dated 2009).

No end group written: not given here. A value given as a limit tells only on which side of the number the result lay.

Holding throughout (type): cell-based
Assay [1] deals with Escherichia coli O157:H7 sakai. Conditions: O157:H7, 24 h. Here is the method: (§1) More specifically, liquid bouillon media (“NUTRIENT BROTH Dehydraged” manufactured by DIFCO) in a polypeptide concentration of 500, 250, 125, 62.5, 31.3, 15.6, 7.8, 3.9, 1.9, 1.0 and 0.5 μM were prepared, and filled in a 96-well microplate. On the other hand, bacteria suspension (about 2×10^6 cells/mL) that had been stationary cultured at 37° C. for 18 hours with LB Broth, Lennox (manufactured by DIFCO) were inoculated to each well of the 96-well microplate in an equal amount to that of the pharmaceutical solution (the above-described polypeptide-containing bouillon medium). After inoculation, culture was started in an incubator at 37° C., and it was examined based on the turbidity after 24 hours and 48 hours whether or not bacteria are present. The minimum of the polypeptide concentrations in which no increase in the turbidity caused by bacteria at the time of measurement was observed was defined as MIC in this example.
(§2) Next, regarding the polypeptides of the samples 16, 17, 10, 14, and 20, the same antimicrobial test (MIC measurement test) as in Example 2 was performed with respect to various bacteria (see Table 3), and the antimicrobial spectra of these polypeptides were evaluated.

Assay [2] relates to gram-negative bacteria (E. coli) and gram-positive bacteria (S. aureus). As to the kind of experiment: antimicrobial test of Example 2, results summed up in words. Conditions: summary of Table 2, E. coli and S. aureus. The method, then:
(§3) Regarding the antimicrobial polypeptide of the present invention (samples 1 to 33) and the polypeptides of comparative samples 1 to 3, the antimicrobial activities (minimum inhibitory concentration: MIC) with respect to gram-negative bacteria (E. coli) and gram-positive bacteria (S. aureus) were determined by a liquid medium dilution technique using a 96-well microplate.
as §1

The test system of another assay is S. aureus. The method, then:
as §3, §1
(§4) The unit of MIC in Table 2 is μM. […]

The subject of another assay is E. coli. The method, then: as §3, §1, §4
For assay [3], the system named is Pseudomonas aeruginosa ATCC10145. Conditions: ATCC10145, 24 h. The method, then:
as §1, §2

The subject of assay [4] is Staphylococcus aureus COL (MRSA). The method, then:
as §1, §2

Another assay concerns Bacillus pumilus IFO3813. The method, then:
as §1, §2

For assay [5], the system named is Klebsiella pneumoniae ATCC4352. Conditions: ATCC4352, 24 h. The method, then: as §1, §2
Assay [6] concerns Bacillus subtilis IFO3134. Conditions: IFO3134, 24 h. The method, then: as §1, §2
Assay [7] deals with Micrococcus luteus IFO12708. The settings on record: IFO12708, 24 h. Here is the method:
as §1, §2

Assay [8] relates to Pseudomonas aeruginosa IFO3080. Conditions: IFO3080, 24 h. Here is the method:
as §1, §2

In the next assay the test system is Bacillus brevis IFO15304. The method, then: as §1, §2
For the next assay, the system named is Bacillus cereus IFO3001. The settings on record: IFO3001, 24 h. Here is the method:
as §1, §2

The subject of assay [9] is Staphylococcus aureus RN450 (*MSSA). Conditions: RN450 (*, 24 h). Here is the method: as §1, §2
For assay [10], the system named is Proteus vulgaris ATCC13315. The settings on record: ATCC13315, 24 h. The method, then: as §1, §2
Assay [11] relates to Salmonella typhimurium IFO1324. The settings on record: murium IFO1324, 24 h. The method, then: as §1, §2
Assay [12] relates to Salmonella enteritidis IFO3313. Conditions: IFO3313, 24 h. Here is the method: as §1, §2
Assay [13] deals with Escherichia coli IFO12713. Conditions: IFO12713, 24 h. Here is the method:
as §1, §2

The next assay relates to Bacillus cereus IFO15305. The settings on record: IFO15305, 24 h. Here is the method: as §1, §2
The test system of assay [14] is Bacillus subtilis ATCC6633. The settings on record: ATCC6633, 24 h. Here is the method:
as §1, §2

The test system of assay [15] is Staphylococcus aureus IID1677 (MRSA). Conditions: IID1677, 24 h. The method, then: as §1, §2
In assay [16] the test system is Staphylococcus aureus IFO12732. The settings on record: IFO12732, 24 h. The method, then: as §1, §2

“PKKKRKVPKKKRKV [sample 16, PKKKRKVPKKKRKV]”: the “antimicrobial activity after 24 hours: MIC” value in assay [1] was determined as 17.9 µM.

With “RKKKRKVLALKLAGLDI [sample 14, RKKKRKVLALKLAGLDI]”, in assay [2], the “antimicrobial activities (in words)” value is listed as “high antimicrobial activities”. Besides, the “antimicrobial activity (MIC) S. aureus after 24h” value in the assay on S. aureus worked out at 1.0 µM. Moreover, the “antimicrobial activity (MIC) S. aureus after 48h” value in the assay with S. aureus came to 1.9 µM. Moreover, in the assay with E. coli, the “antimicrobial activity (MIC) E. coli after 24h” value was determined as 3.9 µM. In addition, the “antimicrobial activity (MIC) E. coli after 48h” value with E. coli came to 3.9 µM. Besides, the “antimicrobial activity after 24 hours: MIC” value in assay [1] amounted to 8.0 µM; in [3] it was 32.0 µM; in assay [4] it was 16.0 µM; in the assay on Bacillus pumilus IFO3813 it was 4.0 µM; in assay [5] it was 32.0 µM; in assay [6], 1.0 µM. The “antimicrobial activity after 24 hours: MIC” value in [7] is 4.0 µM; in assay [8], 16.0 µM; in the assay on Bacillus brevis IFO15304 it was 128.2 µM; in the assay on Bacillus cereus IFO3001, 32.0 µM; in assay [9], 16.0 µM; in assay [10], 64.1 µM. Moreover, the “antimicrobial activity after 24 hours: MIC” value in [11] is more than 256.3 µM; in assay [12], 32.0 µM; in assay [13], 8.0 µM; in the assay on Bacillus cereus IFO15305, 64.1 µM; in assay [14], 1.0 µM.

Turning to “RIRKKLRRIRKKLR [sample 17, RIRKKLRRIRKKLR]”, the “antimicrobial activity (MIC) S. aureus after 24h” value with S. aureus worked out at 3.9 µM. Further, the “antimicrobial activity (MIC) S. aureus after 48h” value in the assay on S. aureus was determined as 3.9 µM. Further, in the assay with E. coli, the “antimicrobial activity (MIC) E. coli after 48h” value was 3.9 µM. In addition, the “antimicrobial activity after 24 hours: MIC” value came out at 8.1 µM in [1]; 8.1 µM in assay [3]; 16.3 µM in [4]; 16.3 µM with Bacillus pumilus IFO3813; 8.1 µM in assay [5]; 0.5 µM in assay [6]. For the same substance, the “antimicrobial activity after 24 hours: MIC” value in assay [15] is 8.1 µM; in assay [7], 4.1 µM; in assay [8] it was 8.1 µM; in the assay with Bacillus brevis IFO15304, more than 260.3 µM; in the assay with Bacillus cereus IFO3001, more than 260.3 µM; in assay [9], 32.5 µM. Moreover, the “antimicrobial activity after 24 hours: MIC” value was 8.1 µM in assay [10]; 4.1 µM in [11]; 4.1 µM in assay [12]; 8.1 µM in assay [13]; more than 260.3 µM in the assay on Bacillus cereus IFO15305; 2.0 µM in assay [16]. Besides, the “antimicrobial activity after 24 hours: MIC” value in assay [14] came out at 1.0 µM.

Take “RKKKRKVVKRKKKR [sample 28, RKKKRKVVKRKKKR]”: the “antimicrobial activities (in words)” value in assay [2] is given as “particularly high antimicrobial activities”. Moreover, in the assay on S. aureus, the “antimicrobial activity (MIC) S. aureus after 24h” value was 3.9 µM and the “antimicrobial activity (MIC) S. aureus after 48h” value was determined as 7.8 µM. In the assay on E. coli, the “antimicrobial activity (MIC) E. coli after 24h” value was found to be 1.0 µM and the “antimicrobial activity (MIC) E. coli after 48h” value came out at 1.0 µM.

As for “RKKKRKVRKKKRKV [sample 20, RKKKRKVRKKKRKV]”, the “antimicrobial activity (MIC) S. aureus after 24h” value with S. aureus came out at 1.9 µM. In addition, the “antimicrobial activity (MIC) S. aureus after 48h” value with S. aureus came to 1.9 µM. Besides, the “antimicrobial activity (MIC) E. coli after 24h” value with E. coli is 1.9 µM. For the same substance, in the assay with E. coli, the “antimicrobial activity (MIC) E. coli after 48h” value was 1.9 µM. Moreover, the “antimicrobial activity after 24 hours: MIC” value was determined as 8.4 µM in assay [1]; 4.2 µM in assay [3]; 33.5 µM in assay [4]; 16.7 µM with Bacillus pumilus IFO3813; 4.2 µM in [5]; 4.2 µM in assay [6]. Besides, the “antimicrobial activity after 24 hours: MIC” value is 8.4 µM in assay [15]; 8.4 µM in [7]; 4.2 µM in [8]; 133.9 µM in the assay on Bacillus brevis IFO15304; more than 267.9 µM with Bacillus cereus IFO3001; 33.5 µM in assay [9]. Moreover, the “antimicrobial activity after 24 hours: MIC” value in assay [10] amounted to 8.4 µM; in [11], 8.4 µM; in [12] it was 4.2 µM; in [13], 8.4 µM; in the assay with Bacillus cereus IFO15305 it was 133.9 µM; in assay [16], 4.2 µM. Also, the “antimicrobial activity after 24 hours: MIC” value in assay [14] stood at 2.1 µM.

On to RKKKRKV-NH2 [sample 24, RKKKRKV-CONH2], for which the “antimicrobial activities (in words)” value in assay [2] is “higher antimicrobial activities”. Further, in the assay with S. aureus, the “antimicrobial activity (MIC) S. aureus after 24h” value was found to be 1.0 µM and the “antimicrobial activity (MIC) S. aureus after 48h” value was found to be 1.0 µM. In the assay with E. coli, the “antimicrobial activity (MIC) E. coli after 24h” value came out at 3.9 µM and the “antimicrobial activity (MIC) E. coli after 48h” value was determined as 15.6 µM.
